From ChEMBL document CHEMBL5303762, “Data for DCP probe BI-8668” (2023)

How the values were obtained:
[1] = target: Amiloride-sensitive sodium channel, ENaC (Mus musculus) (UniProt Q61180+Q9WU38+Q9WU39); assay: Inhibition of M-1 water resorption; format: functional, cell-based; conditions: M1, concentration not given here
[2] = target: Muscarinic acetylcholine receptor M3 (Homo sapiens) (UniProt P20309); assay: M3(H)AGON Eurofins SafetyScreen44 (BI); conditions: filed as agonist, Compound concentration 10.0 uM
[3] = target: 5-hydroxytryptamine receptor 1D (Homo sapiens) (UniProt P28221); conditions: Compound concentration 10.0 uM
[4] = target: 5-hydroxytryptamine receptor 2B (Homo sapiens) (UniProt P41595); conditions: Compound concentration 10.0 uM
[5] = target: D(4) dopamine receptor (Homo sapiens) (UniProt P21917); conditions: Compound concentration 10.0 uM
[6] = target: Sodium-dependent dopamine transporter (Homo sapiens) (UniProt Q01959); conditions: Compound concentration 10.0 uM
[7] = target: Histamine H2 receptor (Homo sapiens) (UniProt P25021); conditions: Compound concentration 10.0 uM
[8] = target: Beta-1 adrenergic receptor (Homo sapiens) (UniProt P08588); conditions: Compound concentration 10.0 uM
[9] = target: T1, Muscarinic acetylcholine receptor M1 (Homo sapiens) (UniProt P11229); conditions: Compound concentration 10.0 uM
T1 sequence (whole entry): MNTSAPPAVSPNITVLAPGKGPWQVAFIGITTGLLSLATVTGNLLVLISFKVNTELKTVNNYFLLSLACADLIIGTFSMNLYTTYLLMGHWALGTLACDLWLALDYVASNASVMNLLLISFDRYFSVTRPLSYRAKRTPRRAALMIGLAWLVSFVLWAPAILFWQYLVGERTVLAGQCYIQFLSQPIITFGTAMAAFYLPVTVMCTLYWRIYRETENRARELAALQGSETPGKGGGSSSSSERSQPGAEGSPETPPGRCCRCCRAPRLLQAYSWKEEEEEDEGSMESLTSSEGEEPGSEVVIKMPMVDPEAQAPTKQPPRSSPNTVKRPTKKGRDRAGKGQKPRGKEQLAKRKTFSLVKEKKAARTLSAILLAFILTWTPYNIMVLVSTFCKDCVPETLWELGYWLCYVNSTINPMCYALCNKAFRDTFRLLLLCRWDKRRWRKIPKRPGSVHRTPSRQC

[10] = target: Muscarinic acetylcholine receptor M5 (Homo sapiens) (UniProt P08912); conditions: Compound concentration 10.0 uM
[11] = target: Alpha-1D adrenergic receptor (Homo sapiens) (UniProt P25100); conditions: Compound concentration 10.0 uM
Sequence of Alpha-1D adrenergic receptor (Homo sapiens) (P25100 whole entry): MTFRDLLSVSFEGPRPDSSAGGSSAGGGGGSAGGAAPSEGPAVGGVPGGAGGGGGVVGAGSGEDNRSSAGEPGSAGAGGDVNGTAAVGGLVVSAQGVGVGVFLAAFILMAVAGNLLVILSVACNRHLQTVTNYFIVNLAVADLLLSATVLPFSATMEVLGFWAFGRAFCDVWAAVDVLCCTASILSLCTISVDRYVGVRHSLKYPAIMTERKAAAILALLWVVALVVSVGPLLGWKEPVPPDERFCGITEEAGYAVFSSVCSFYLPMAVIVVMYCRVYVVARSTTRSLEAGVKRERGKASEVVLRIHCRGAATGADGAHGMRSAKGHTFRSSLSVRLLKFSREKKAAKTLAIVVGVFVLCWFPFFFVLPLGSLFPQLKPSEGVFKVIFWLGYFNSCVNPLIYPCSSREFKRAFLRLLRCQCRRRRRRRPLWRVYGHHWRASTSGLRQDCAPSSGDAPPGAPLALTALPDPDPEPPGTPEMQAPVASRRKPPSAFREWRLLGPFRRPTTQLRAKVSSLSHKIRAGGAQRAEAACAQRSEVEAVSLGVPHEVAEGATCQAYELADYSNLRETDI

Sequence of 5-hydroxytryptamine receptor 2B (Homo sapiens) (P41595 whole entry): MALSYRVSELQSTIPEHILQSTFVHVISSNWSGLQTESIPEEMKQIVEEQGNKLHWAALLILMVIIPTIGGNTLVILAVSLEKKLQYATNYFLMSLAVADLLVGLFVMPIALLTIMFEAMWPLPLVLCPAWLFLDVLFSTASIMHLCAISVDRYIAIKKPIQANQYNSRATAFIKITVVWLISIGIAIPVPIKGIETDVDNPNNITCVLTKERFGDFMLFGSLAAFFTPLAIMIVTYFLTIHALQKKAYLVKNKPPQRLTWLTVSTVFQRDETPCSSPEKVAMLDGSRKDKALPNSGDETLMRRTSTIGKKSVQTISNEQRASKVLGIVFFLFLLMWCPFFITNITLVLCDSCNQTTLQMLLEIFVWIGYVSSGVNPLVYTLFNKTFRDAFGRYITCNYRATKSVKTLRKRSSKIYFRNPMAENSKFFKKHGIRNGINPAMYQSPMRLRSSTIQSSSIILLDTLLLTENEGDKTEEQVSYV
Sequence of Muscarinic acetylcholine receptor M5 (Homo sapiens) (P08912 whole entry): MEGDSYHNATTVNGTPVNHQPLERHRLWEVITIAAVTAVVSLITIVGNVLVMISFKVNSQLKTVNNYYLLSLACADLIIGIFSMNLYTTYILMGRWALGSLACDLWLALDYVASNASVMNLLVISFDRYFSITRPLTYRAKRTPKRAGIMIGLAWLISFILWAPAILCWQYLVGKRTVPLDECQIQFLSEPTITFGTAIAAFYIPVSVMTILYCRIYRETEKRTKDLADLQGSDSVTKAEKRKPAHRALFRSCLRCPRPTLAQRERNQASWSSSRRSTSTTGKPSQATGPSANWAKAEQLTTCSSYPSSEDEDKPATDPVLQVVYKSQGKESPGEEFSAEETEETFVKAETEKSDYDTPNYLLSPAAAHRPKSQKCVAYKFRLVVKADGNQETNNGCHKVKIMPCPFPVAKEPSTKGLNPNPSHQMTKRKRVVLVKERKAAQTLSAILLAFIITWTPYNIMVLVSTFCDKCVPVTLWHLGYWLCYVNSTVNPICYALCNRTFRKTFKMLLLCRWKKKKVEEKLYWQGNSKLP
Sequence of D(4) dopamine receptor (Homo sapiens) (P21917 whole entry): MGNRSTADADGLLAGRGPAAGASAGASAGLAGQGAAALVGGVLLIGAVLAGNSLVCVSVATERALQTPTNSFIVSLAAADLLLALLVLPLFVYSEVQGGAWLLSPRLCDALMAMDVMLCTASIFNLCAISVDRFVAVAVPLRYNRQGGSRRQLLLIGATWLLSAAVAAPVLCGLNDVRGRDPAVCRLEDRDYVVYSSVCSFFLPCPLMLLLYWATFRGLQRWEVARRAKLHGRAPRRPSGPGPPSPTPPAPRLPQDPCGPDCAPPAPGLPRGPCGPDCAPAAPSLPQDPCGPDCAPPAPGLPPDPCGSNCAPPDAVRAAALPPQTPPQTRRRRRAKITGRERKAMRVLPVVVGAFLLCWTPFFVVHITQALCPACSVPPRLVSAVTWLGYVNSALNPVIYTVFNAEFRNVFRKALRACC
Sequence of Sodium-dependent dopamine transporter (Homo sapiens) (Q01959 whole entry): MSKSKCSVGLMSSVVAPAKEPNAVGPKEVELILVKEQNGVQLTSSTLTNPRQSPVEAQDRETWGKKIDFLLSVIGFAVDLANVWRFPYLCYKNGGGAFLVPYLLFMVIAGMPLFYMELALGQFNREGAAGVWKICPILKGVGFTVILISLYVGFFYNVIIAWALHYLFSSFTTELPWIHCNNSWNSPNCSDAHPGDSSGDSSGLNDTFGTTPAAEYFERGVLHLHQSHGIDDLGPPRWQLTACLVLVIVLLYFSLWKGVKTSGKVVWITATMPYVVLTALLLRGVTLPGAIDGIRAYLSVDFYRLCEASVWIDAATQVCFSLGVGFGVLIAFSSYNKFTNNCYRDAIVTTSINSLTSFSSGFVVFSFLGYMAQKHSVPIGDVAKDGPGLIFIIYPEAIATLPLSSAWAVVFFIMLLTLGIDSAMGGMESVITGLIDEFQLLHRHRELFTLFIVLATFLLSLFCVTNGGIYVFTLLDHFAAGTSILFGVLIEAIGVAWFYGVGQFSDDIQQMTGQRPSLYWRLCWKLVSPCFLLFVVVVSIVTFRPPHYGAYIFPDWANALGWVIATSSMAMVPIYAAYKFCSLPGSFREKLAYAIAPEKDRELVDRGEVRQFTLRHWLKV
Sequence of Histamine H2 receptor (Homo sapiens) (P25021 whole entry): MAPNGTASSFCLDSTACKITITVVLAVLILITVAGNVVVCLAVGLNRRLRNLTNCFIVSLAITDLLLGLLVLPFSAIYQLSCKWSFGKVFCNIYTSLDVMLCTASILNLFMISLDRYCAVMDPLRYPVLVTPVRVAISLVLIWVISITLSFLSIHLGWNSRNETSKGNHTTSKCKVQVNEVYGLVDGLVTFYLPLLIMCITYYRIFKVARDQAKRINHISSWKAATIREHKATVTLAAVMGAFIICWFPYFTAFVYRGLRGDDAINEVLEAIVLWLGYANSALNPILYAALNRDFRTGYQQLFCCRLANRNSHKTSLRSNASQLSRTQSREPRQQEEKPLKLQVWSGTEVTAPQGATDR
Sequence of Beta-1 adrenergic receptor (Homo sapiens) (P08588 whole entry, looked up): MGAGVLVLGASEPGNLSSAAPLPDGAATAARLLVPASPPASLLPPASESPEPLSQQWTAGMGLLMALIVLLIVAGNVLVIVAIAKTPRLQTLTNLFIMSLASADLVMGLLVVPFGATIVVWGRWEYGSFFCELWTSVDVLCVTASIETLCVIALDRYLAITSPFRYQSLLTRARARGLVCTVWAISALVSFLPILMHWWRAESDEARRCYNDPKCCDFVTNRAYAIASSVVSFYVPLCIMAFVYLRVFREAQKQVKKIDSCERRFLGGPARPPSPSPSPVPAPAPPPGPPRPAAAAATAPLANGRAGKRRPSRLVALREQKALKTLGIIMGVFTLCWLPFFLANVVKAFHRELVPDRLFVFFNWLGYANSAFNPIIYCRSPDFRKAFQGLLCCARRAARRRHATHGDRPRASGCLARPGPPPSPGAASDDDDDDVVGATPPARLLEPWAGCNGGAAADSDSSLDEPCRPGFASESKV
Sequence of 5-hydroxytryptamine receptor 1D (Homo sapiens) (P28221 whole entry): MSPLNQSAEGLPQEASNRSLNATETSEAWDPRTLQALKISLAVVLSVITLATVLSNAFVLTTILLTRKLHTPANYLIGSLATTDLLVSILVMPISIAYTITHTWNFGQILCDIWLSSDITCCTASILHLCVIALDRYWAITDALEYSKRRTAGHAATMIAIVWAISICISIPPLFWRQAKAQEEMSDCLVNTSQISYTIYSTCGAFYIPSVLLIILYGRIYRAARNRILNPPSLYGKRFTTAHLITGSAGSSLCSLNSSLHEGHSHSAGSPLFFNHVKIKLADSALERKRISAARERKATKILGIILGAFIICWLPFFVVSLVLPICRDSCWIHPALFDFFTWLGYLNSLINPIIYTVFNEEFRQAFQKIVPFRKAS
Sequence of Muscarinic acetylcholine receptor M3 (Homo sapiens) (P20309 whole entry, looked up): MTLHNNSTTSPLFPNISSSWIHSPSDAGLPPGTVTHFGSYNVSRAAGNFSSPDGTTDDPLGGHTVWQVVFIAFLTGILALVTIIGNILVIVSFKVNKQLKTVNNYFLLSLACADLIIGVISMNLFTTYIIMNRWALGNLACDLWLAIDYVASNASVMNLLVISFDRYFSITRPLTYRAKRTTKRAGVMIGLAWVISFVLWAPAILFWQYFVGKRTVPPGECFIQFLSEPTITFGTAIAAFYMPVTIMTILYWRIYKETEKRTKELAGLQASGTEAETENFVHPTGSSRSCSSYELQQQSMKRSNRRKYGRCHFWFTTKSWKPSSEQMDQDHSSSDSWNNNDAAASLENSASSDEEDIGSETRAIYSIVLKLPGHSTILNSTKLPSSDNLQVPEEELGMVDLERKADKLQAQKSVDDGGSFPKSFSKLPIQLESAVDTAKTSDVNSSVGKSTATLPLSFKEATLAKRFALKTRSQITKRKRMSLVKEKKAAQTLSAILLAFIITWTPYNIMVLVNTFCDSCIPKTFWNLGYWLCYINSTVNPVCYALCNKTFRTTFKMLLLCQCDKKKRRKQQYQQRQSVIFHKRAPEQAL

inhibition [1]: 81% | inhibition [3]: 22.8% | inhibition [4]: 7.03% | inhibition [5]: 7.07% | inhibition [6]: 12.4% | inhibition [7]: 27.9% | inhibition [8]: 4.25% | inhibition [9]: 10.2% | inhibition [10]: 18.7% | inhibition [11]: 1.74%
SMILES: CCn1c(CNC(=O)c2nc(Cl)cnc2N)[n+](CC)c2ccc(C(=O)N(C)CCN(C)C)cc21
residual activity [2]: 102%
